# Data published in patent US9163021B2, “Pyrrolo[3,2-c]pyridine tropomyosin-related kinase inhibitors” (Pfizer Limited, priority 2012, dated 2015).
# Molecular target: TRKA (Homo sapiens (Human), UniProt P04629)
# Assay: Isolated TRK enzyme assay (HTRF KinEASE-TK), PV3144 TrkA enzyme assay
# Assay type: biochemical
# Conditions: arithmetic mean where more than one reading
# Experimental: Isolated TRK Enzyme assays use the HTRF KinEASE-TK kit (Cisbio Cat#62TK0PEJ) with recombinant His-tagged cytoplasmic domains of each TRK receptor sourced from Invitrogen (see table below). This activity-assay measures the phosphorylation of tyrosine residues within a substrate from the HTRF kit which has been validated by Cisbio for a variety of tyrosine kinases including the TRK receptors.
# 0.5 mM stock solutions of test compounds are prepared and serially diluted in 100% DMSO. A standard curve using the compound of Example 135 disclosed in WO2005/116035 of 150 uM is also prepared on each test plate. High percentage effect (HPE) is defined by 150 uM (using the compound of Example 135 as disclosed in WO2005/116035) and 0% effect (ZPE) is defined by 100% DMSO. Greiner low volume black plates containing 0.2 ul of serially diluted compound, standard and HPE/ZPE are created using the Bravo nanoliter dispenser.
# 1× enzyme buffer is prepared from 5× Enzymatic Buffer from the Cisbio KinEASE TK kit using MilliQ water. The buffer is then supplemented with 10 mM MgCI and 2 mM DTT (both from Sigma). In the case of TRKB, the buffer is also supplemented with 125 nM Supplement Enzymatic Buffer (SEB) from the Cisbio kit.
# 2× FAC of enzyme and 2× FAC ATP diluted in 1× complete enzyme buffer is incubated at room temperature for 20 minutes to preactivate the enzyme. Following this preactivation step, 5 ul/well of enzyme+ATP mix is added using a Multidrop Micro to the assay plate, spotted with 0.2 ul 100% DMSO compound. This is left for 20 mins at room temperature before adding 5 ul of 2 uM TK-substrate-Biotin (from the Cisbio kit) diluted in 1× enzyme buffer (1 uM FAC) using the Multidrop Micro. The reaction is incubated at room temperature for the optimized assay reaction time (see table). The reaction is stopped by adding 10 ul/well HTRF Detection Buffer containing 0.25 uM Streptavidin-XL665 (0.125 uM FAC) and 1:200 TK Antibody-Cryptate using a Multidrop.
# After the Detection Reagent addition, plates are covered and incubated at room temperature for 60 minutes. HTRF signal is read using an Envision reader, measured as a ratio of emissions at two different wavelengths, 620 nm and 665 nm. […] Test compound data are expressed as percentage inhibition defined by HPE and ZPE values for each plate. Percentage inhibition in the presence of test compound is plotted against compound concentration on a log scale to determine an IC50 from the resultant sigmoid curve.
# Where more than one reading was taken, the arithmetic mean is presented.
# Sequence of TRKA (P04629 441-796): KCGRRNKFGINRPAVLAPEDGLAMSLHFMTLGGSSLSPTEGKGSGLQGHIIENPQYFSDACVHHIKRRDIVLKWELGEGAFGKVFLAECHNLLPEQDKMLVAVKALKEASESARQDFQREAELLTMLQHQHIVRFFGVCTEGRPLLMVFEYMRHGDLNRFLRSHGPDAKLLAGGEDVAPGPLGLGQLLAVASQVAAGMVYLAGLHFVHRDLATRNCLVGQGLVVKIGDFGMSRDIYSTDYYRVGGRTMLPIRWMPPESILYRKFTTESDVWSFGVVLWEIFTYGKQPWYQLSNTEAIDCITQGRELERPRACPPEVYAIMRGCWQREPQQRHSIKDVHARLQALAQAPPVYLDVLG
row,Compound,IC50
1,"2-(2,5-dicyclopropyl-1,3-oxazol-4-yl)-N-(4-{[1-(oxetan-3-yl)-1H-pyrrolo[3,2-c]pyridin-3-yl]carbonyl}pyridin-2-yl)acetamide [Example 203]",71.3 nM
2,"2-(3-methoxyphenyl)-N-(5-{[1-(propan-2-yl)-1H-pyrrolo[3,2-c]pyridin-3-yl]carbonyl}pyridin-3-yl)acetamide [Example 129]",96.2 nM
3,"CC(CO)n1cc(C(=O)c2cc(NC(=O)Cc3ccc(Cl)cn3)ccn2)c2cnccc21 (single isomer, unassigned) [Example 17, 2-(5-chloropyridin-2-yl)-N-(2-{[1-(1-hydroxypropan-2-yl)-1H-pyrrolo[3,2-c]pyridin-3-yl]carbonyl}pyridin-4-yl)acetamide]",106 nM
4,"CC(CO)n1cc(C(=O)c2cc(NC(=O)Cc3cccc(C(F)(F)F)c3)ccn2)c2cnccc21 (single isomer, unassigned) [Example 18, 2-(3-trifluoromethylphenyl)-N-(2-{[1-(1-hydroxypropan-2-yl)-1H-pyrrolo[3,2-c]pyridin-3-yl]carbonyl}pyridin-4-yl)acetamide]",36.4 nM
5,"CC(CO)n1cc(C(=O)c2cncc(NC(=O)Cc3cccc(C(F)(F)F)c3)c2)c2cnccc21 (single isomer, unassigned) [Example 34, N-(5-{[1-(1-hydroxypropan-2-yl)-1H-pyrrolo[3,2-c]pyridin-3-yl]carbonyl}pyridin-3-yl)-2-[3-(trifluoromethyl)phenyl]acetamide]",17.1 nM
6,"CC(CO)n1cc(C(=O)c2cncc(NC(=O)Cc3ccc(C(F)(F)F)cc3)c2)c2cnccc21 (single isomer, unassigned) [Example 35, N-(5-{[1-(1-hydroxypropan-2-yl)-1H-pyrrolo[3,2-c]pyridin-3-yl]carbonyl}pyridin-3-yl)-2-[4-(trifluoromethyl)phenyl]acetamide]",87.9 nM
7,"CC(CO)n1cc(C(=O)c2cncc(NC(=O)Cc3cccc(C(F)(F)F)c3)c2)c2cnccc21 (single isomer, unassigned) [Example 36, N-(5-{[1-(1-hydroxypropan-2-yl)-1H-pyrrolo[3,2-c]pyridin-3-yl]carbonyl}pyridin-3-yl)-2-[3-(trifluoromethyl)phenyl]acetamide]",44.7 nM
8,"CC(CO)n1cc(C(=O)c2cncc(NC(=O)Cn3cc(C(F)(F)F)nn3)c2)c2cnccc21 (single isomer, unassigned) [Example 59, N-(5-{[1-(1-hydroxypropan-2-yl)-1H-pyrrolo[3,2-c]pyridin-3-yl]carbonyl}pyridin-3-yl)-2-[4-(trifluoromethyl)-1H-1,2,3-triazol-1-yl]acetamide]",63.9 nM
9,"CC(CO)n1cc(C(=O)c2cncc(NC(=O)Cn3cc(C4CC4)nn3)c2)c2cnccc21 (single isomer, unassigned) [Example 61, 2-(4-cyclopropyl-1H-1,2,3-triazol-1-yl)-N-(5-{[1-(1-hydroxypropan-2-yl)-1H-pyrrolo[3,2-c]pyridin-3-yl]carbonyl}pyridin-3-yl)acetamide]",65.9 nM
10,"CC(C)c1cn(CC(=O)Nc2cncc(C(=O)c3cn(C(C)CO)c4ccncc34)c2)nn1 (single isomer, unassigned) [Example 62, N-(5-{[1-(1-hydroxypropan-2-yl)-1H-pyrrolo[3,2-c]pyridin-3-yl]carbonyl}pyridin-3-yl)-2-[4-(propan-2-yl)-1H-1,2,3-triazol-1-yl]acetamide]",54.3 nM
11,"Cc1cc(C(F)(F)F)nn1CC(=O)Nc1cncc(C(=O)c2cn(C(C)CO)c3ccncc23)c1 (single isomer, unassigned) [Example 63, N-(5-{[1-(1-hydroxypropan-2-yl)-1H-pyrrolo[3,2-c]pyridin-3-yl]carbonyl}pyridin-3-yl)-2-[5-methyl-3-(trifluoromethyl)-1H-pyrazol-1-yl]acetamide]",28.8 nM
12,"CC(C)n1ncc(CC(=O)Nc2cncc(C(=O)c3cn(C(C)CO)c4ccncc34)c2)c1C(F)(F)F (single isomer, unassigned) [Example 64, N-(5-{[1-(1-hydroxypropan-2-yl)-1H-pyrrolo[3,2-c]pyridin-3-yl]carbonyl}pyridin-3-yl)-2-[1-(propan-2-yl)-5-(trifluoromethyl)-1H-pyrazol-4-yl]acetamide]",105 nM
13,"CC(CO)n1cc(C(=O)c2cncc(NC(=O)Cc3ccc(C(F)(F)F)cc3)c2)c2cnccc21 (single isomer, unassigned) [Example 65, N-(5-{[1-(1-hydroxypropan-2-yl)-1H-pyrrolo[3,2-c]pyridin-3-yl]carbonyl}pyridin-3-yl)-2-[4-(trifluoromethyl)phenyl]acetamide]",37 nM
14,"CC(CO)n1cc(C(=O)c2cncc(NC(=O)Cc3ccc(Cl)cn3)c2)c2cnccc21 (single isomer, unassigned) [Example 66, 2-(5-chloropyridin-2-yl)-N-(5-{[1-(1-hydroxypropan-2-yl)-1H-pyrrolo[3,2-c]pyridin-3-yl]carbonyl}pyridin-3-yl)acetamide]",37.6 nM
15,"CC(CO)n1cc(C(=O)c2cncc(NC(=O)Cc3ccc(F)cn3)c2)c2cnccc21 (single isomer, unassigned) [Example 68, 2-(5-fluoropyridin-2-yl)-N-(5-{[1-(1-hydroxypropan-2-yl)-1H-pyrrolo[3,2-c]pyridin-3-yl]carbonyl}pyridin-3-yl)acetamide]",201 nM
16,"CC(CO)n1cc(C(=O)c2cncc(NC(=O)Cn3cc(C(F)(F)F)nn3)c2)c2cnccc21 (single isomer, unassigned) [Example 69, N-(5-{[1-(1-hydroxypropan-2-yl)-1H-pyrrolo[3,2-c]pyridin-3-yl]carbonyl}pyridin-3-yl)-2-[4-(trifluoromethyl)-1H-1,2,3-triazol-1-yl]acetamide]",77.6 nM
17,"CC(C)c1cn(CC(=O)Nc2cncc(C(=O)c3cn(C(C)CO)c4ccncc34)c2)nn1 (single isomer, unassigned) [Example 70, N-(5-{[1-(1-hydroxypropan-2-yl)-1H-pyrrolo[3,2-c]pyridin-3-yl]carbonyl}pyridin-3-yl)-2-[4-(propan-2-yl)-1H-1,2,3-triazol-1-yl]acetamide]",65.6 nM
18,"CC(C)n1ncc(CC(=O)Nc2cncc(C(=O)c3cn(C(C)CO)c4ccncc34)c2)c1C(F)(F)F (single isomer, unassigned) [Example 71, N-(5-{[1-(1-hydroxypropan-2-yl)-1H-pyrrolo[3,2-c]pyridin-3-yl]carbonyl}pyridin-3-yl)-2-[1-(propan-2-yl)-5-(trifluoromethyl)-1H-pyrazol-4-yl]acetamide]",149 nM
19,"CC(CO)n1cc(C(=O)c2cncc(NC(=O)Cc3ccc(C#N)cc3)c2)c2cnccc21 (single isomer, unassigned) [Example 72, 2-(4-cyanophenyl)-N-(5-{[1-(1-hydroxypropan-2-yl)-1H-pyrrolo[3,2-c]pyridin-3-yl]carbonyl}pyridin-3-yl)acetamide]",125 nM
20,"CC(CO)n1cc(C(=O)c2cncc(NC(=O)Cc3ccc(Cl)cn3)c2)c2cnccc21 (single isomer, unassigned) [Example 73, 2-(5-chloropyridin-2-yl)-N-(5-{[1-(1-hydroxypropan-2-yl)-1H-pyrrolo[3,2-c]pyridin-3-yl]carbonyl}pyridin-3-yl)acetamide]",88.3 nM
21,"CC(CO)n1cc(C(=O)c2cncc(NC(=O)Cc3ccc(F)cn3)c2)c2cnccc21 (single isomer, unassigned) [Example 74, 2-(5-fluoropyridin-2-yl)-N-(5-{[1-(1-hydroxypropan-2-yl)-1H-pyrrolo[3,2-c]pyridin-3-yl]carbonyl}pyridin-3-yl)acetamide]",233 nM
22,"CC(CO)n1cc(C(=O)c2cncc(NC(=O)Cn3cc(C4CC4)nn3)c2)c2cnccc21 (single isomer, unassigned) [Example 76, 2-(4-cyclopropyl-1H-1,2,3-triazol-1-yl)-N-(5-{[1-(1-hydroxypropan-2-yl)-1H-pyrrolo[3,2-c]pyridin-3-yl]carbonyl}pyridin-3-yl)acetamide]",121 nM
23,"Cc1cc(C(F)(F)F)nn1CC(=O)Nc1cncc(C(=O)c2cn(C(C)CO)c3ccncc23)c1 (single isomer, unassigned) [Example 77, N-(5-{[1-(1-hydroxypropan-2-yl)-1H-pyrrolo[3,2-c]pyridin-3-yl]carbonyl}pyridin-3-yl)-2-[5-methyl-3-(trifluoromethyl)-1H-pyrazol-1-yl]acetamide]",33.7 nM
24,"CC(CO)n1cc(C(=O)c2cc(NC(=O)Cc3ccc(Cl)cn3)ccn2)c2cnccc21 (single isomer, unassigned) [Example 86, 2-(5-chloropyridin-2-yl)-N-(2-{[1-(1-hydroxypropan-2-yl)-1H-pyrrolo[3,2-c]pyridin-3-yl]carbonyl}pyridin-4-yl)acetamide]",93.2 nM
